Measured values: patent US20230046081A1, “SYNERGISTIC ACTIVITY OF NOVEL COMPOUNDS AGAINST PLANKTONIC AND BIOFILM CELLS OF CLINICALLY RELEVANT PATHOGENS” (priority 2021, published 2023)
Where a name gives a salt, the structure may show the parent alone.

Columns and labels:
[1] = test system: bacterial and fungal biofilms (eight test organisms); assay: Rapid biofilm eradication, 48-h old biofilms, 2 hour exposure; type: cell-based
Protocol: This example comprises performing biofilm growth as described above. After biofilm formation, control pegs (n=6) were removed and analyzed to determine the starting biofilm cell numbers via the drop dilution method. The 48-h old biofilms on the pegs were exposed to different concentrations of test antimicrobials, dissolved in an appropriate growth medium, for 2 hours to evaluate their efficacy alone and in combination. […] Following treatment, pegs were washed twice with sterile PBS, and the biofilm cells were dislodged into recovery medium and enumerated as described above.

[2] = test system: Gram-positive, Gram-negative, and fungal biofilms; assay: MBEC Assay, 48 h old biofilms on pegs, 24 h antimicrobial exposure; type: cell-based; conditions: 24 hours of treatment
Protocol: The evaluation of the biofilm cultivation cell composition was evaluated using an MBEC Assay® biofilm inoculator, consisting of a polystyrene lid with 96 downward-protruding pegs and a corresponding base used to grow biofilms. A standardized inoculum was diluted in an appropriate biofilm growth medium to achieve a viable cell count of 1.5×10^6 CFU/mL of bacterial cells or 5×10^5 CFU/mL of fungal cells. Then, 150 μL of this inoculum was transferred into each appropriate well, and the peg lids were inserted into the microtiter plates. The plates were sealed with Parafilm and were incubated at optimum temperature for 48 h with slight rocking for bacteria and shaking at 200 rpm for fungal strains. After incubation, the peg lid was removed from the base and rinsed twice with sterile phosphate-buffered saline (PBS) for 2 min to remove loosely attached non-sessile cells. Before the antimicrobial challenge, the pegs in column 1 (n=8) were considered as the biofilm growth control; these pegs were removed from the lids, placed into 200 μL of recovery medium, and analyzed for starting biofilm cell numbers as described below. […] After the antimicrobial challenge, the pegs were rinsed twice with sterile PBS for 2 min and placed into a new 96-well plate containing 200 μL of recovery medium. The recovery plates were sealed with Parafilm, and biofilm cells were dislodged from the pegs by sonication for 30 min with a Branson 3510 bath sonicator. The biofilm cells in the recovery medium were serially diluted, and a drop dilution assay was performed to enumerate the viable cells.

[3] = test system: commonly encountered pathogens; conditions: cited from earlier work
[4] = test system: Klebsiella pneumoniae, E. coli, S. epidermidis, P. aeruginosa, and C. albicans; conditions: 40 mg/mL, locked for 21-25 h; cited from earlier work
[5] = dog, in vivo; cited from earlier work

Row | SMILES | eradication of preformed biofilms, agent alone at its MBEC [1] | concentration alone able to eradicate all established biofilms [2] | minimum ethanol required to provide a 3-log reduction [3] [%] | biofilm colonization on catheter segments [4] | cochlear or vestibular neurotoxicity [5]
1 | [H]/N=C(\N/C(=N/[H])NCCCCCCNC(=N)NC(=N)Nc1ccc(Cl)cc1)Nc1ccc(Cl)cc1 [chlorhexidine HCl, 1,6-bis(4-chloro-phenylbiguanido)hexane, reference compound] | failed to eradicate | 100 µg/mL |  |  | 
2 | CCO [ethanol, reference compound] | failed to eradicate | 50% | ≥ 60 |  | 
3 | O=C(O)CN(CCN(CC(=O)O)CC(=O)O)CC(=O)O.[Na].[Na].[Na].[Na] [tetrasodium EDTA, tetrasodium ethylenediaminetetraacetic acid] | failed to eradicate | 4% |  | reduced biofilm colonization | 
4 | [H]/N=C(\N/C(=N/[H])NCCCCCCNC(=N)NC(=N)Nc1ccc(Cl)cc1)Nc1ccc(Cl)cc1 [chlorhexidine, 1,6-bis(4-chloro-phenylbiguanido)hexane] |  |  |  |  | did not induce cochlear or vestibular neurotoxicity
